Literature values in US20240358662A1, “COMPOSITIONS, METHODS AND SYSTEMS FOR AEROSOL DRUG DELIVERY” (ASTRAZENECA PHARMACEUTICALS LP, priority 2021, published 2024).

Conditions: for Latent Heat @ Boiling Point: at boiling point

Structure (SMILES) | Liquid Density @ 20° C. | Liquid Viscosity @ 20° C. (mPa · S) | Surface Tension @ 20° C. (mN/m) | Vapor Pressure @ 20° C. (kPa) | Latent Heat @ 25° C. | Latent Heat @ Boiling Point
FCC(F)(F)F [HFA-134a, 1,1,1,2-tetrafluoroethane] | 1.23 g/mL | 0.211 mPa · S | 8.09 mN/m | 570 kPa | 177.7 kJ/kg | 216.7 kJ/kg
FC(C(F)(F)F)C(F)(F)F [HFA-227ea, 1,1,1,2,3,3,3-Heptafluoropropane] | 1.41 g/mL | 0.267 mPa · S | 7.50 mN/m | 390 kPa | 110.97 kJ/kg | 131.4 kJ/kg
CC(F)F [HFC-152a, 1,1-Difluoroethane] | 0.91 g/mL | 0.171 mPa · S | 10.4 mN/m | 510 kPa | 279.1 kJ/kg | 318.4 kJ/kg
C=C(F)C(F)(F)F [HFO-1234yf, 2,3,3,3-Tetrafluoropropene] | 1.11 g/mL | 0.164 mPa · S | 6.8 mN/m | 592 kPa | 145.4 kJ/kg | 180.5 kJ/kg
FC=CC(F)(F)F [HFO-1234ze, 1,3,3,3-tetrafluoropropene] | 1.18 g/mL | 0.206^3 mPa · S | 8.9 mN/m | 427 kPa | 166.8 kJ/kg | 195.43 kJ/kg
